Measured values as given in a melting point compilation (Tetko et al.; mined from patent text by program, amines drawn as free bases though some values may be those of a salt).

First: CC(C)(C)N1CC(c2cccc(C(F)(F)F)c2)OCC1=O (configuration not stated)
Second: CN1CCN(C(=O)c2cc(N)cc(C(F)(F)F)c2)CC1
The melting point of the first is lower: 81 to 83 °C for the first, 114 to 115 °C for the second.

Compared with IC#CCn1c2ccccc2c2ccccc21, OCCOCc1nn(Cc2ccccc2)c2ccccc12 is lower in melting point: 151 to 152 °C for the first, 67 to 69 °C for the second.

Compared with CCOC(=O)Cc1cccc(-c2nc(COc3ccc(CO)cc3OC)c(C)o2)c1, Nc1nc2ccc(CO)cc2n1Cc1cccc2cccnc12 is higher in melting point: 96 to 98 °C for the first, 230 °C for the second.

First: COC1CCC(C2=C(O)C(=O)c3ccccc3C2=O)CC1 (configuration not stated)
Second: OC1CC2(CCN(C3CCC3)CC2)Oc2ccccc21 (configuration not stated)
The melting point of the first is lower: 152 to 155 °C for the first, 211 to 213 °C for the second.

First: COc1cc(C)c(CCCCCCCCCC(=O)CCCCCCCCCCCC(=O)O)c(O)c1OC
Second: CCCCCCCCCCCCCCCCCCOc1cc(O)cc(N(CC(=O)O)CC(=O)O)c1
The melting point of the first is lower: 63 to 64 °C for the first, 143 to 146 °C for the second.

Compared with CCOC(=O)c1nnc2ccc(NCCCN3CCC(OC(c4ccccc4)c4ccccc4)CC3)nn12, CS(=O)(=O)C(=C1CN(C(c2ccccc2)c2ccccc2)C1)c1cccc2ccccc12 is higher in melting point: 129 to 133 °C for the first, 196 °C for the second.

First: CN(C)C(=O)c1cnn(-c2ccc(Br)cc2)c1C#N
Second: N#CSCC(=O)c1ccc(Br)cc1
The melting point of the first is lower: 131 to 133 °C for the first, 148 to 149 °C for the second.

Compared with COc1ccc2sc3c(c2c1)OC(C)CNC3=O (configuration not stated), COc1ccc2c(c1)Oc1ccc(Cl)cc1NC2 is lower in melting point: 185 to 186 °C for the first, 113 to 115 °C for the second.

First: CCCCCc1cc(N)cc(O)c1
Second: Cc1cc(CCCc2ccc(CO)c(CO)c2)ccc1O
The melting point of the first is lower: 88 to 91 °C for the first, 92 °C for the second.

First: COc1cc(-c2ncc(C(F)(F)F)cc2F)c(F)cc1Cl
Second: COc1cc(Oc2c(Cl)cccc2C(F)(F)F)nc(C(=O)O)c1
The melting point of the first is lower: 79 to 80 °C for the first, 110 to 112 °C for the second.

First: CCC1(O)CC(=O)OCc2c1ccn(Cc1cc3cc4c(cc3nc1I)OCCO4)c2=O (configuration not stated)
Second: CCCCOc1cc2ncnc(N3CCc4ccc(Cl)cc43)c2cc1OC
The melting point of the first is higher: 165 to 167 °C for the first, 126 to 132 °C for the second.

First: CCOc1cc2c(cc1OC(C)=O)CCC1C2CCC2(C)C(OC(C)=O)CCC12 (configuration not stated)
Second: CCOC1=CC2=CCC3C(CCC4(C)C3CCC4(C)C(C)=O)C2(C)CC1 (configuration not stated)
The melting point of the first is higher: 132 to 133 °C for the first, 114 to 116 °C for the second.

O=C1NC(=O)C(=Cc2cc(O)c(O)c([N+](=O)[O-])c2)N1 and CCn1c(=O)c2[nH]c(/C=C/c3cccc([N+](=O)[O-])c3)nc2n(CC)c1=O cannot be ordered by melting point: > 350 °C for the first, > 270 °C for the second.

Compared with Cc1cccc(NC(=O)NCC(=O)N(CC(=O)OC(C)(C)C)c2ccccc2C(=O)N2CCCC(C)(C)C2)c1, COC(=O)CC[C@H](NC(=O)c1ccc(NCC(=O)OCc2ccccc2)cc1)C(=O)OC is lower in melting point: 207 °C for the first, 82 °C for the second.

First: CN(C)CCCC1(O)c2ccccc2CCc2c(C3(C)OCCO3)cccc21 (configuration not stated)
Second: Cc1c(C)c2c(c(C)c1OCc1ccccc1)CC[C@@](C)(CCO)O2
The melting point of the first is higher: 122 to 124 °C for the first, 55 to 56 °C for the second.

Compared with O=Cc1c2n(c3cc(Br)ccc13)CCNCC2, O=C1Nc2ccccc2N(C(=O)CCN2CCCC2)c2ccc(Cl)cc21 is lower in melting point: 186 to 188 °C for the first, 167 to 169 °C for the second.

First: COc1ccc2c(=O)c(-c3ccccc3)c(SCc3cccnc3)oc2c1
Second: COc1ccc2sc(C(=O)Oc3ccccc3)c(Oc3ccccc3)c2c1
The melting point of the first is lower: 152 °C for the first, 198 °C for the second.

First: CCOC(=O)CNC(=O)[C@@H]1CS[C@H](c2ccccc2O)N1C(=O)CCSC(C)=O
Second: CCOC(=O)NCC(=O)NNC1=NC(C)C(c2ccccc2)=NN1 (configuration not stated)
The melting point of the first is lower: 130 to 131 °C for the first, 144 to 146 °C for the second.

First: NCc1cccc(N)c1
Second: Cc1ncc(-c2ccccc2)s1
The melting point of the first is lower: 40 to 43 °C for the first, 72 to 74 °C for the second.

First: O=C(Nc1ccc(Oc2ccnc(N3CCCC(O)C3)n2)c2ccccc12)c1cc(F)cc(N2CCCCC2)c1 (configuration not stated)
Second: O=C(O)c1ccc(N2CCCC2)c(NC(=O)C(CS)Cc2ccccc2)c1 (configuration not stated)
The melting point of the first is lower: 93 to 95 °C for the first, 229 to 234 °C for the second.

First: O=c1c2cc(CBr)ccc2oc2ncccc12
Second: CSc1coc2ccccc2c1=O
The melting point of the first is higher: 211 to 212 °C for the first, 103 to 105 °C for the second.

First: CC(C)(C)CCCOC1CCC2C3C(=O)C=C4CC(O[Si](C)(C)C(C)(C)C)CCC4(C)C3CCC12C (configuration not stated)
Second: CC12C=CC(O)CC1CCC1C2CCC2(C)C(C#N)CCC12 (configuration not stated)
The melting point of the first is higher: 155 to 156 °C for the first, 129 to 133 °C for the second.

First: c1ccc(-c2cc3c(nn2)-c2ccccc2CN3)cc1
Second: CCOC(=O)c1cccc(NC(=O)N[C@@H]2N=C(c3ccccc3)c3ccccc3N(C)C2=O)c1
The melting point of the first is higher: 250 to 252 °C for the first, 140 to 142 °C for the second.

First: COc1cc(Nc2nccc(Sc3ccccc3)n2)cc(OC)c1OC
Second: COc1ccc2[nH]ccc(=O)c2c1OCc1ccccc1
The melting point of the first is lower: 110 °C for the first, 171 to 172 °C for the second.

First: CN1CC(CCCl)Oc2cc(Cl)ccc2C1=S (configuration not stated)
Second: Cc1nc2ccc(Cl)nn2c1Br
The melting point of the first is lower: 105 to 106 °C for the first, 146 to 148 °C for the second.

First: CCOC(=O)c1cn(C(=O)c2ccccc2)c2sc(-c3ccc(OC)cc3)c(CBr)c2c1=O
Second: CCOC(=O)Cn1c(C(=O)NCc2nnc(C)n2-c2sc(CC)cc2C(=O)c2ccccc2Cl)cc2ccccc21
The melting point of the first is lower: 124 to 126 °C for the first, 138 to 140 °C for the second.

First: CCc1c(N)c(Cl)cc(Cc2cc(Cl)c(N)c(CC)c2Cl)c1Cl
Second: COc1cc(Nc2c(C#N)cnc3ccsc23)c(Cl)cc1Cl
The melting point of the first is lower: 146 to 148 °C for the first, 208 to 210 °C for the second.

First: Cc1cncn1-c1cc(C(=O)O)cc(C(F)(F)F)c1
Second: O=C(Nc1ccc(F)c(C(F)(F)F)c1)N1COc2cc(Oc3cc(Cl)ncn3)ccc21
The melting point of the first is higher: 243 to 245 °C for the first, 188 to 191 °C for the second.

Compared with COc1ccc(NC(=O)C(Cl)Cl)cn1, COc1nc(C)nc(NC(=O)NS(=O)(=O)c2ccc(Cl)nn2)n1 is higher in melting point: 104 to 107 °C for the first, 135 °C for the second.

First: COc1cccc(C(=O)N(C(=O)OCI)N(C(=O)c2cc(C)cc(C)c2)C(C)(C)C)c1C
Second: CCN(CC)CCOc1ccc(-c2oc3ccc(Cl)cc3c2C(=O)c2cc(C)cc(C)c2)cc1
The melting point of the first is lower: 70 to 72 °C for the first, 161 to 162 °C for the second.

First: NS(=O)(=O)c1ccc(N2CN(c3ccccc3)CC2=O)c(Cl)c1
Second: N#CN1CCN(c2nn(S(=O)(=O)c3ccccc3)c3cc(F)ccc23)CC1
The melting point of the first is higher: 204 °C for the first, 178 to 180 °C for the second.

First: S=C(NN=Cc1cccc(-c2ccccc2Cl)n1)NN1CCCC1
Second: N#CCN1CCN(c2cccccc2=O)CC1
The melting point of the first is higher: 187 to 188 °C for the first, 133 to 135 °C for the second.

First: CCOC(=O)c1cc2c(C)ccc(N(C)S(=O)(=O)c3cccnc3Cl)c2[nH]1
Second: CCOCc1nc2c(NC(C)=O)nc3ccccc3c2n1CC(C)(C)NS(C)(=O)=O
The melting point of the first is higher: 158 to 159 °C for the first, 75 to 76 °C for the second.

Compared with COc1ccc(OCCCBr)c(C2Sc3ccccc3N(C)C2=O)c1 (single isomer, unassigned; (-)), COc1ccc(C(=O)c2c(F)cccc2F)c(O)c1 is lower in melting point: 77 to 78 °C for the first, 71 to 72 °C for the second.

First: Nc1ccc(SCC2CCC2)cc1[N+](=O)[O-]
Second: O=C(c1ccc2nonc2c1)N1C2CCCC1COC2
The melting point of the first is lower: 49 to 53 °C for the first, 128 to 130 °C for the second.

Compared with COC(=O)c1c(C)nc2c(c1N(C)C)c1ccccc1n2C, CCCNC(=O)c1ccc(-c2nc(=O)c3ccccc3s2)nc1 is higher in melting point: 106 to 108 °C for the first, 268 to 269 °C for the second.

First: O=S(=O)(CC1CS1)c1ccc(Oc2ccccc2)cc1 (configuration not stated)
Second: CN(C)S(=O)(=O)CC(CS(=O)(=O)c1ccc(Oc2ccc(OC(F)(F)F)cc2)cc1)N(O)C=O (configuration not stated)
The melting point of the first is lower: 99 to 101 °C for the first, 124 to 126 °C for the second.

Compared with CCOCc1nc2c(N)nc3ccccc3c2n1C[C@@H](O)CO, O=c1ccn(CC(O)CO)c(Cc2ccccc2)c1O (configuration not stated) is higher in melting point: 99 to 100 °C for the first, 185 to 186 °C for the second.

Compared with CCC(Cl)C(=O)Nc1c(C(=O)CC(=O)Nc2ccccn2)cccc1C(F)(F)F (configuration not stated), CNC(Cc1ccccc1NC(=O)C(C)(C)C)c1ccccc1C (configuration not stated) is lower in melting point: 137 °C for the first, 77 to 79 °C for the second.

First: C[C@H](NS(=O)(=O)c1ccc2ccccc2c1)C(=O)Cl
Second: COc1ccc(S(=O)(=O)c2cnoc2C(C)C)cc1
The melting point of the first is higher: 134 to 136 °C for the first, 62 to 63.5 °C for the second.

Compared with O=C(Cl)C(=O)N1CCOC1=O, O=c1sc(CO)c(C(F)(F)F)n1CC=C(Cl)Cl is higher in melting point: 57 °C for the first, 81 °C for the second.

First: CCC1(CC)c2cc(Br)ccc2-c2ccc(I)cc21
Second: CCCCCNC(=O)N(C)c1cccc(-c2ccc(C=C(OCC)C(=O)O)cc2OCCCC)c1
The melting point of the first is higher: 162 to 164 °C for the first, 59 °C for the second.

First: CC1(C)CCC(C)(C)c2cc(C(O)C3CCCCC3C(=O)O)ccc21 (configuration not stated)
Second: CC(C)(C)OC(=O)NC1CCCOCC=CC2CC2(C(=O)NS(=O)(=O)C2CC2)NC(=O)C2CC(OCc3ccccc3)CN2C1=O (configuration not stated)
The melting point of the first is higher: 186 °C for the first, 147 to 149 °C for the second.

Compared with CC(C)(C)OC(=O)N(O)C(=O)CCN, CC(C)(C)c1cc(CCc2ccccc2NC(=O)NC(c2ccccc2)c2ccccc2)cc(C(C)(C)C)c1O is higher in melting point: 85 to 87 °C for the first, 187 °C for the second.

Compared with CCCCCN(CCCCC)C(=O)[C@H]1Cc2c([nH]c3ccccc23)CN1, CCCCc1ncc(/C=C(\Cc2ccsc2)c2nnn[nH]2)n1Cc1ccccc1Cl is lower in melting point: 157 to 158 °C for the first, 142 to 144 °C for the second.

First: Brc1ccccc1-c1nnnn1C(c1ccccc1)(c1ccccc1)c1ccccc1
Second: O=c1[nH]cc(C(c2ccccc2)c2ccccc2)cc1C(c1ccccc1)c1ccccc1
The melting point of the first is lower: 160 to 162 °C for the first, 240 °C for the second.

First: COC(=O)c1cn(Cc2ccc3cc(OCc4ccccc4)ccc3c2)cc1-c1ccccc1
Second: CC(=Cc1ccc2c(c1)Sc1cc(C=C(C)c3ccccc3)ccc1N2C)c1ccccc1
The melting point of the first is lower: 109 to 110 °C for the first, 189 to 191 °C for the second.

First: CS(=O)(=O)c1cnc2c(c1)cc(-c1ncco1)n2Cc1ccc(F)cc1
Second: CS(=O)(=O)c1ccc(-c2ccc(Cl)nc2-c2ccc(F)cc2)cc1
The melting point of the first is higher: 200 to 201 °C for the first, 192 °C for the second.

Compared with Nc1ccc(-c2cc3c(N4CCc5ccccc54)ncnc3[nH]2)cc1, COC(=O)/C=C/c1ccc(OC2Cc3ccccc3C2)cc1 is lower in melting point: > 300 °C for the first, 115 to 116 °C for the second.

First: Cc1cc(Br)cnc1CCCCNC1=NS(=O)N=C1NCc1cccnc1 (configuration not stated)
Second: CC(C)NCC(O)COc1cccc2c1C(=Cc1ccccc1)C(=O)N2 (configuration not stated)
The melting point of the first is higher: 179 to 180 °C for the first, 163 to 165 °C for the second.

First: COc1cc(OCC(CO)CO)c(C=O)cc1-c1cccs1
Second: Cc1cc(I)cc(C=CC#N)c1
The melting point of the first is higher: 144 to 145 °C for the first, 98 °C for the second.
